Data: publication PMC2693121 (Molecular cell, 2009)

Columns and labels:
[1] = molecular target: Cdk9 (Schizosaccharomyces pombe, UniProt Q96WV9, T120G); assay: radiometric kinase assay with [γ-32P]-ATP on GST-Spt5; assay type: biochemical
[2] = molecular target: Mcs6 (Schizosaccharomyces pombe, UniProt Q12126, L87G); assay: radiometric kinase assay with [γ-32P]-ATP on GST-Rpb1-CTD; assay type: biochemical
Mcs6, sequence (P36613 whole entry): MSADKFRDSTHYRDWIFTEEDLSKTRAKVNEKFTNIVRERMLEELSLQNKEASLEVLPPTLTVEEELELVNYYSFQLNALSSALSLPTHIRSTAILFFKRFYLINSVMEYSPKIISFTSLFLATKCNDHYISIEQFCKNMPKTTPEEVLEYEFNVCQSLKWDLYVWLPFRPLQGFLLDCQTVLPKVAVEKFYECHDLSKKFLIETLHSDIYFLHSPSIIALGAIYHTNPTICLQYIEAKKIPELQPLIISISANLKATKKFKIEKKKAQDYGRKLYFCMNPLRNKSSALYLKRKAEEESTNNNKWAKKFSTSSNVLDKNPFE
Mcs6, sequence (Q12126 whole entry, stated change not applied): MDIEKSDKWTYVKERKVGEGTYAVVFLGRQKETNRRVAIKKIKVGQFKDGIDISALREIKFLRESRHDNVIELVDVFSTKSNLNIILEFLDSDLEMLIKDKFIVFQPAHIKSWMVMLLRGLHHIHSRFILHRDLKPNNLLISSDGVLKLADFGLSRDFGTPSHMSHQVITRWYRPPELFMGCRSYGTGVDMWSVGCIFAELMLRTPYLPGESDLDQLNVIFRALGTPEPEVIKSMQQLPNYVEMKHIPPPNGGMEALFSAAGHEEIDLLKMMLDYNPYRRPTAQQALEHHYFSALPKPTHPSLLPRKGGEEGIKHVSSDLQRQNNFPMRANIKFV
Mcs6, sequence (O94684 whole entry, further chain): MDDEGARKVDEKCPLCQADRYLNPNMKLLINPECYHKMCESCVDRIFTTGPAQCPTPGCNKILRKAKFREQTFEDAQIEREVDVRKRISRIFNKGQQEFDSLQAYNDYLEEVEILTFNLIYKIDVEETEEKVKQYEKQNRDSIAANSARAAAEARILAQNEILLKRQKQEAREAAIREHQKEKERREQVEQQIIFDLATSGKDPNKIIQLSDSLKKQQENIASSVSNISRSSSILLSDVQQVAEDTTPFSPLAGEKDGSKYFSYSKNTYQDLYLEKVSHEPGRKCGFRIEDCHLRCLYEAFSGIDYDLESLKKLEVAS

Cdk9, sequence (O74880 whole entry): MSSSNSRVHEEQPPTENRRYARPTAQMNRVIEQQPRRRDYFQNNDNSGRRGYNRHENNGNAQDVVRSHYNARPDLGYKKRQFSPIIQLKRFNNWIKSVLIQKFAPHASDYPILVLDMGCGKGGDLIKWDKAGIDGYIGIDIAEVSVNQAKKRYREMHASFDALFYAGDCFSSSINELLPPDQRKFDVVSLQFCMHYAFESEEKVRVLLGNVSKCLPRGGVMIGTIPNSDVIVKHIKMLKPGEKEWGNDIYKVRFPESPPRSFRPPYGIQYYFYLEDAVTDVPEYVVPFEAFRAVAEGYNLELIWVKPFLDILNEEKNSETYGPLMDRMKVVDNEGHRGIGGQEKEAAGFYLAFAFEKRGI
Cdk9, sequence (O74627 whole entry, further chain): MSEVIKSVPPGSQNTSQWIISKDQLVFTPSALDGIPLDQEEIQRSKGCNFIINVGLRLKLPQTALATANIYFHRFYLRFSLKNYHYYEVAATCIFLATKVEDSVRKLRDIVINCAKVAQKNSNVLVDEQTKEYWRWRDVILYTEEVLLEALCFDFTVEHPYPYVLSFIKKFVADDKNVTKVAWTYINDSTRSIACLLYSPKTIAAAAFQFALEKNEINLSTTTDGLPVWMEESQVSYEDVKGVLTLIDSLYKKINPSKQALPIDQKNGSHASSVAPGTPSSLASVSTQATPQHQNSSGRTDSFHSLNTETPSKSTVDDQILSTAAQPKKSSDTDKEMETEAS
Cdk9, sequence (Q96WV9 whole entry, stated change not applied): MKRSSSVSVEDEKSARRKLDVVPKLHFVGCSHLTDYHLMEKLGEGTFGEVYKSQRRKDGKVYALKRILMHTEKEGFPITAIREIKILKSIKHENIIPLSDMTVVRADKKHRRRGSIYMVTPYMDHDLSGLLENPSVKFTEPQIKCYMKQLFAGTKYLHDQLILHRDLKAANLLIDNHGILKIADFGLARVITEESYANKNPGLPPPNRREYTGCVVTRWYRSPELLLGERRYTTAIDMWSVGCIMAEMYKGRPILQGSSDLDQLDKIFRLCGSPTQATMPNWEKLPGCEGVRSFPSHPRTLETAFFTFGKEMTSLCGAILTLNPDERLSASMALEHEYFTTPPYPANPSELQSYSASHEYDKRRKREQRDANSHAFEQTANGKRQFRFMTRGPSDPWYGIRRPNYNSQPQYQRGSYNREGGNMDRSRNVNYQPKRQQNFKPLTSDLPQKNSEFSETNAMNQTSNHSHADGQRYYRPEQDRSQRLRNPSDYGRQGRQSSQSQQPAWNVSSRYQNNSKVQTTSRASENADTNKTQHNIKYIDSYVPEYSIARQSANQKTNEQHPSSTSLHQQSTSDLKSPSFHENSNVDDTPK

Structure (SMILES)	IC50 [1] [nM]	IC50 [2] [nM]
CC(C)(C)n1nc(Cc2cccc3ccccc23)c2c(N)ncnc21 [1-NM-PP1]	~500	
Cc1cccc(Cc2nn(C(C)(C)C)c3ncnc(N)c23)c1 [3-MB-PP1]	~25	~125
